# Assay results reported in patent publication US8017579B2, “Treatment of viral infections” (priority 2003, dated 2011).
# Several values for one entry are separate records, joined by “and”; a condition that tells them apart may be missing. Equal entries are not always repeated. Where two headings read alike, the source gives them in different places. Ends that are not written are not given here.
# What was measured:
# HSV1 [1] = format: cell-based, herpes simplex virus type 1; settings: for antiviral activity against HSV1 (in words): HSV1 plaque assay, Vero cells
# Procedure: African Green Monkey Kidney (Vero) cells were maintained in Eagle's minimum essential medium with Earle's salt (EMEM) and supplemented with 10% foetal calf serum (heat-inactivated), 4 mM L-glutamine, and 1% (v/v) nonessential amino acids, plus penicillin and streptomycin (100 IU/ml and 100 μg/ml, respectively) (maintenance medium referred to as 10% EMEM). The cells were incubated at 37° C. in a humidified atmosphere of air with 5% CO2.
# On harvesting, monolayers were washed in phosphate-buffered saline (PBS), and dislodged by incubating with trypsin in PBS for 30 min, before inactivating trypsin by addition of an equal volume of 10% EMEM and centrifuging at 500 g (5 min, 4° C.). Cell pellets were resuspended in 10% EMEM, prior to cell counting and seeding of 24-well plates. For antiviral assays, medium containing only 0.5% FCS was used (referred to as 0.5% EMEM).
# Three separate passages of HSV1 virus were prepared by infecting Vero cells, and preparing semi-pure suspensions of virus from tissue culture supernatant and cell lysates, before freezing aliquots of virus at −85° C. Viral infectivity was assessed by carrying out plaque assays on serial dilutions of thawed aliquots (expressed in pfu/ml).
# Peptides were obtained in lyophilised form from a commercial supplier (AltaBioscience, University of Birmingham or Advanced Biomedical), and were produced at 5 micromole scale. N-terminals were protected by addition of an acetyl group, and the C-terminals were protected by addition of an amide group.
# Small quantities of peptide were weighed in sterile Eppendorf tubes, before addition of sufficient 0.5% EMEM to produce a 1.5 mM stock solution, which was frozen at −20° C. in aliquots.
# (§1) Vero cells were seeded at 125,000 cells per well in 10% EMEM, and were incubated overnight resulting in confluent monolayers. Peptides were diluted in 0.5% EMEM to give 2× final desired concentration, and 100 μl aliquots were arranged on 96-well plates in arrangement to be used for 24-well plate; control wells containing normal 0.5% EMEM were also prepared. Virus stocks (p3) were thawed, and diluted in 0.5% EMEM such that there were around 100 pfu in 100 μl. Each 24-well plate was inoculated separately. Firstly 100 μl of virus stock was added to the peptide or control medium arranged on a 96-well plate. This was incubated at 37° C. for ten minutes before inoculation. Medium was removed from four wells of a 24-well plate containing confluent Vero, and the 200 μl inoculum added to the appropriate well. Once all wells were treated, the 24-well plate was incubated for a further 60-80 minutes. Finally the peptide-containing inoculum was removed, and 1 ml of 1% EMEM containing 1% carboxymethylcellulose was added to each well. Plates were incubated for a further 22 hours, before removal of overlay, and addition of 10% formaldehyde in PBS. After a further one hour incubation, fixative was removed, monolayers washed several times with tap water, and stained with carbol fuchsin solubilised in water. After 30 minutes stain was removed, and plates washed several times with tap water, before being air dried. Plaques were counted using an Olympus IX70 Inverting Microscope, and antiviral effect expressed as a percentage of the control value for each peptide concentration. The IC50 was calculated from plots of inhibitory effect against peptide concentration.
# The methods employed were as described in Examples 1-4 expect peptides were prepared as 400 μM stocks in phosphate buffered saline (PBS).
# bacteria = settings: Azuma et al., Peptides, 21: 327-330 (2000); cited from earlier work
# HSV1 [2] = experiment: HSV1 plaque formation in Vero cells (Example 1); format: cell-based, herpes simplex virus type 1
# Procedure: (§2) FIG. 1 and table 1 show typical results for the test for anti-HSV1 activity. The assay involved treating confluent Vero cells in 24-well plates with medium containing virus and varying amounts of peptide for one hour, followed by removal of this inoculum, and addition of viscous ‘overlay’ medium, containing 0.2% high viscosity carboxymethylcellulose. The overlay medium only allows infection of those cells immediately adjacent to an infected cell. After 2 days incubation and then fixation and staining, small patches of infected cells (or ‘plaques’) are visible, which are counted. Each of these corresponds to the infection of a single cell during the one hour inoculation. ApoE141-149dp produced a 40% reduction in plaque number at a concentration of around 20 μM. Note the peptide was only present in the experimental system for 1 hour.
# HIV-1 = settings: 7 days; for % Decrease in HIV p24 Production, Mean ± sd / % Decrease in HIV p24 Production, Exp. 1-3: U937 cells
# Procedure: The assay was carried out by incubating HIV infected U937 cells in the presence of various levels of peptide for 7 days, followed by assay for levels of the HIV protein p24 in the cells using an Enzyme Linked Immunoabsorbant Assay (ELISA) technique.
# HSV2 = HSV2 plaque formation in HEp-2 cells (Example 1); format: cell-based, herpes simplex virus type 2; settings: HSV2, HEp-2 cells
# Procedure: as §2
# FIG. 2 and table 2 show typical results for the test for anti-HSV2 activity. The assay was carried out as for the anti-HSV1 assay, except Hep-2 cells were used rather than Vero cells. ApoE141-149dp produced a 50% reduction in plaque number at a concentration of around 20 μM. Again note that the peptide was only present in the experimental system for 1 hour.
# HSV2 clinical isolates = format: cell-based, herpes simplex virus type 2
# Procedure: as §1
# Plaque assays were performed. The methodology was as described in previous Examples for HSV1 plaque assays (including usage of Vero cells) except HSV2 clinical isolates (provided by Prof. Anthony Hart of Liverpool University) were employed instead.
# HIV isolate SF162 = experiment: HIV-1 infectious foci in NP2 glioma cells over-expressing CD4 and CCR5; format: cell-based; settings: HIV isolate SF162, NP-2 glioma cells overexpressing CCR5, 0.1 to 10 micromolar
# Procedure: Similar experiments to those described in Example 2 were conducted to test the efficacy of the peptides according to the invention against HIV infection. The glioma cell line NP2 over-expressing both CD4 and the appropriate co-receptor (CCR5 or CXCR4) were maintained in DMEM supplemented with 10% FCS. 2×10^4 cells were plated per well of a 48-well plate 24 h prior to infection and grown at 37 C. The cells were then washed, and incubated in DMEM/FCS containing peptide concentrations ranging from 0.1 to 10 micromolar, at 37 C for 30 minutes. 200 focus-forming units of HIV-1 stocks were then added to each well, and the cells incubated at 37 C for a further 2 hours. The cells were then washed twice in PBS and fresh medium replaced. After 3 day's growth the cells were fixed in cold methanol:acetone, and stained in situ for expression of HIV-1 p24 using a monoclonal anti-p24 followed by a secondary anti-mouse beta-galactosidase conjugate. Expression was visualised by X-Gal staining and infectious foci enumerated by light-microscopy.
# [3] = 5 μM peptide, untreated mean 152 ± 10.7
substance,measurement,setting,value
LRKRKRLRKLRKRKRLRK-NH2 (C-terminus assumed) [GIN 38],IC50,HSV1 [1],9 µM
same,antiviral activity against HSV1 (in words),HSV1 [1],have antiviral activity
RWRKRWRKRWRKRWRK-NH2 (C-terminus assumed) [MU_71],IC50,HSV1 [1],16 µM
HRWRKRWRKWRWRKRWRK-NH2 (C-terminus assumed) [MU_31],IC50,HSV1 [1],7.5 µM
"apoE 134-155: peptide derivative of apoE tested for antibacterial action (Azuma et al.) (RVRLASHLRKLRKRLLRDADDL; UniProt P02649 152-173, looked up, fragment)",antibacterial action (in words),bacteria,little effect
"ApoE263-286: peptide from a region of apolipoprotein E that is not involved in HSPG receptor binding (SWFEPLVEDMQRQWAGLVEKVQAA; UniProt P02649 281-304, looked up, fragment)","Plaque number, wells 1-4","HSV1 [2]; 5 μM peptide in inoculum for 1 hour, untreated mean 107 ± 14.2",113 and 119 and 122 and 126
same,"Plaque number, Mean ± sd","HSV1 [2]; 5 μM peptide, untreated mean 107 ± 14.2",120 ± 5.5
same,"Plaque number, Mean ± sd",HSV1 [2]; 10 μM peptide,114 ± 11.1
same,"Plaque number, wells 1-4",HSV1 [2]; 10 μM peptide,116 and 124 and 102
same,"Plaque number, Mean ± sd",HSV1 [2]; 20 μM peptide,127 ± 17.0
same,"Plaque number, wells 1-4",HSV1 [2]; 20 μM peptide,148 and 112 and 133 and 114
same,"Plaque number, Mean ± sd",HSV1 [2]; 30 μM peptide,121 ± 11.2
same,"Plaque number, wells 1-4",HSV1 [2]; 30 μM peptide,134 and 109 and 114 and 125
same,"Plaque number, Mean ± sd",HSV1 [2]; 40 μM peptide,126 ± 11.2
same,"Plaque number, wells 1-4",HSV1 [2]; 40 μM peptide,120 and 113 and 125 and 144
same,reduction in infectivity,"HIV-1; HIV infected U937 cells, 20 μM",20%
same,"% Decrease in HIV p24 Production, Mean ± sd",HIV-1; 10 μM peptide,23.21 ± 12.79%
same,"% Decrease in HIV p24 Production, Mean ± sd",HIV-1; 20 μM peptide,22.77 ± 13.07%
same,"% Decrease in HIV p24 Production, Exp. 1-3",HIV-1; 30 μM peptide,37.94% and 27.83% and 41.78%
same,"% Decrease in HIV p24 Production, Mean ± sd",HIV-1; 30 μM peptide,35.85 ± 7.21%
same,"% Decrease in HIV p24 Production, Mean ± sd",HIV-1; 40 μM peptide,38.87 ± 12.70%
same,"% Decrease in HIV p24 Production, Exp. 1-3",HIV-1; 50 μM peptide,33.36% and 41.45% and 45.66%
same,"% Decrease in HIV p24 Production, Mean ± sd",HIV-1; 50 μM peptide,40.16 ± 6.25%
same,"Plaque number, Mean ± sd",HSV2; [3],152 ± 12.0
same,"Plaque number, wells 1-4",HSV2; [3],135 and 160 and 161 and 152
same,"Plaque number, Mean ± sd",HSV2; 10 μM peptide,141 ± 16.1
same,"Plaque number, wells 1-4",HSV2; 10 μM peptide,157 and 121 and 151 and 134
same,"Plaque number, Mean ± sd",HSV2; 20 μM peptide,146 ± 27.3
same,"Plaque number, wells 1-4",HSV2; 20 μM peptide,118 and 150 and 182 and 134
same,"Plaque number, Mean ± sd",HSV2; 30 μM peptide,124 ± 24.2
same,"Plaque number, wells 1-4",HSV2; 30 μM peptide,118 and 117 and 103 and 159
same,"Plaque number, Mean ± sd",HSV2; 40 μM peptide,131 ± 24.2
same,"Plaque number, wells 1-4",HSV2; 40 μM peptide,132 and 144 and 125 and 124
RWRKRWRWRKRWRWRKRW-NH2 (C-terminus assumed) [MU_84],IC50,HSV1 [1],10 µM
RTRKRWRKRTRKRGRK-NH2 (C-terminus assumed) [MU_70],IC50,HSV2 clinical isolates,> 20 µM
same,IC50,HSV1 [1],9.5 µM
LRTRKRGRKLRTRKRGRK-NH2 (C-terminus assumed) [GIN 16],IC50,HSV1 [1],22 µM
same,antiviral activity against HSV1 (in words),HSV1 [1],showed antiviral activity
same,antiviral activity against HSV1 (in words),HSV1 [1]; listed as GIN16,appreciable antiviral effect
KRWRKRWRKKRWRKRWRK-NH2 (C-terminus assumed) [MU_34],IC50,HSV1 [1],9 µM
LRWRKRWRKWRWRKRWRK-NH2 (C-terminus assumed) [MU_30],IC50,HSV1 [1],7.5 µM
RWRKRWRKRWRKRWRK-NH2 (C-terminus assumed) [MU_37],IC50,HSV1 [1],12.5 µM
RWRKRGRKRWRKRGRK-NH2 (C-terminus assumed) [MU_69],IC50,HSV1 [1],13 µM
LRWRKRWRKLRWRKRWRK-NH2 (C-terminus assumed) [MU_35],IC50,HSV1 [1],> 15 µM
RWRKRWRKWRWRKRWRK-NH2 (C-terminus assumed) [MU_32],IC50,HSV2 clinical isolates,> 20 µM
same,IC50,HSV1 [1],7.5 µM
RRWRKRWRKWRWRKRWRK-NH2 (C-terminus assumed) [MU_28],IC50,HSV1 [1],7.5 µM
RTRKRGRKRTRKRGRK-NH2 (C-terminus assumed) [GIN 35],IC50,HSV1 [1],9 µM
same,antiviral activity against HSV1 (in words),HSV1 [1],have antiviral activity
RTRKRGRRTRKRGR-NH2 (C-terminus assumed) [GIN 36],IC50,HSV1 [1],9 µM
same,antiviral activity against HSV1 (in words),HSV1 [1],have antiviral activity
HRWRKRWRKHRWRKRWRK-NH2 (C-terminus assumed) [MU_36],IC50,HSV1 [1],10 µM
Ac-RLRARMEEMRLRARMEEM-NH2 (N-terminus and C-terminus assumed) [GIN 15],IC50,HSV1 [1],> 40 µM
Ac-WRWRKRWRKWRWRKRWRK-NH2 (N-terminus and C-terminus assumed) [GIN 33],anti-HIV action (in words),HIV isolate SF162,anti-HIV action
same,IC50,HSV2 clinical isolates,10 µM
same,antiviral activity against HSV1 (in words),HSV1 [1],have antiviral activity
Ac-HMLDVMQDHFSRASSIIDEL (N-terminus assumed) [GIN 29],IC50,HSV1 [1],38.5 µM
RRWRKRWRKRRWRKRWRK-NH2 (C-terminus assumed) [MU_33],IC50,HSV2 clinical isolates,> 20 µM
same,IC50,HSV1 [1],6.5 µM
LRKRKRLLRKRKRL-NH2 (C-terminus assumed) [GIN 37],IC50,HSV1 [1],9 µM
same,antiviral activity against HSV1 (in words),HSV1 [1],have antiviral activity
"ApoE 133-162: peptide derivative of apoE with antibacterial action (Azuma et al.) (LRVRLASHLRKLRKRLLRDADDLQKRLAVY; UniProt P02649 151-180, looked up, fragment)",antibacterial action (in words),bacteria,most effective
KRWRKRWRKWRWRKRWRK-NH2 (C-terminus assumed) [MU_29],IC50,HSV1 [1],7.5 µM
GERLRARMEGERLRARME-NH2 (C-terminus assumed) [GIN 14],IC50,HSV1 [1],> 40 µM
same,antiviral activity against HSV1 (in words),HSV1 [1],no antiviral activity
